In data set [1] the test system is male C57BL/6J mice fed C or WD. Briefly: Intervention study: MLN4924 initiated after 8 weeks of WD feeding. The class given is in vivo. How it is done: MLN4924 (60 mg/kg, SQ) was given every other day for the last 8 weeks of the 16-week feeding. For both cohorts, body weight was measured weekly. Results are mean ±SEM. n=5-7. “*”, vs C+Veh; “#”, vs. WD+Veh, p<0.05. ns= Not significant.
Male C57BL/6J mice were fed chow or WD for 16 weeks. Vehicle or MLN4924 treatment (60 mg/kg, SQ, once every two days) was initiated after 8 weeks of WD feeding. Analyses were performed after 16 weeks of feeding. Results are mean ± SEM. n=5-8. “*”, vs C+Veh; “#”, vs. WD+Veh, p<0.05. Normalized densitometry was shown in low panel bar graphs.
(§1) Male C57BL/6J mice were purchased from the Jackson Laboratory (Bar Harbor, ME). Mice were fed a regular chow (C) diet or a Western diet (WD) that contains 42% fat calories and 0.2% cholesterol content (TD. 88137, Envigo Inc. Indianapolis, IN).
(§2) MLN4924 and TAS4464 were purchased from MedChemExpress (MCE, Monmouth Junction, NJ). For cell treatment, MLN4924 and TAS4464 were dissolved in DMSO. Cells were serum starved overnight and then treated with MLN4924, TAS4464 and/or insulin as indicated. For injection in mice, MLN4924 and TAS4464 were first dissolved in DMSO, which was further suspended in 10% (2-hydroxypropyl)-β-cyclodextrin (Sigma, St. Louis, MO). The final solution contains 1% DMSO. The subcutaneous injection volume is 200 µl/mouse.
(§3) Lipids were extracted in a mixture of chloroform: methanol (2:1; v: v), dried under nitrogen, and resuspended in isopropanol containing 1% triton X-100. Total cholesterol, free cholesterol and TG were measured with assay kits following the manufacturer’s instruction. Total cholesterol assay kit and TG assay kit were purchased from Pointe Scientific (Canton, MI).
(§4) Aspartate aminotransferase (AST) and alanine aminotransferase (ALT) assay kits were purchased from Pointe Scientific (Canton, MI). Free fatty acid assay kit was purchased from Biovision Inc. (Milpitas, CA). Insulin ELISA kit was purchased from Crystal Chem Inc. (Elk Grove Village, IL).
(§5) Next investigated was the glucose lowering effect of CRL inhibition in mice rendered obese and insulin resistant by 16-weeks of WD feeding. […] Next conducted was an intervention study in which MLN4924 treatment was initiated after mice were fed WD for 8 weeks that rendered mice obese and insulin resistant. […] In summary, robust evidence is provided herein that pharmacological CRL inhibition is an effective approach to lowering hyperglycemia.

The subject of data set [2] is male C57BL/6J mice fed C or WD. Briefly: Prevention experiment: MLN4924 twice/week during 16 weeks of WD feeding. The class given is in vivo. The protocol: Mice fed WD became obese and insulin resistant. For both cohorts, body weight was measured weekly. Male C57BL/6J mice were fed C or WD for 16 weeks. Vehicle or MLN4924 (60 mg/kg) was administered via SQ injection twice/week for 16 weeks. Results are mean ±SEM. n=5-7. “*”, vs C+Veh; “#”, vs. WD+Veh, p<0.05.
as §1, §2, §3, §4, §5

Data set [3] concerns INS-1 832/13 rat pancreas β cells. The data set is described as follows: Insulin secretion assay in INS-1 832/13 cells. The class given is cell-based. The protocol: Insulin secreted into the medium was measured, (c) Total remaining intracellular insulin was measured, (d) The % secreted insulin was the fraction of total medium insulin over the sum of insulin in the medium and cells. Results are from 3 independent experiments and expressed as mean ± SEM. Two-way ANOVA and Tukey post hoc test were used to calculate the p values.
INS-1 832/13 rat insulinoma cell line was purchased from Sigma-Aldrich (St. Louis, MO). Cells were cultured in 24-well plate in RPMI-1640 growth medium until 100% confluent. Cells were then treated with vehicle (DMSO) or 500 nM MLN4924 for 5 hrs. Cells were then incubated with 0.5 ml secretion assay buffer (SAB, 114 mM NaCl, 4.7 mM KCl, 1.2 mM KH2PO4, 1.16 mM MgSO4, 20 mM HEPES pH 7.2, 25.5 mM NaHCO3, 2.5 mM CaCl2, and 0.2% BSA) containing 2.5 mM glucose and either vehicle or 500 nM MLN4924 for 1 hr. This step was repeated once. Next, SAB containing 12 mM glucose (0.5 ml) was added to cells to stimulate insulin secretion for 1 hr. The SAB was then collected and cells were lysed in 0.2 ml 1X RIPA buffer. Insulin concentration in SAB and cell lysates was measured with an ELISA assay kit.

Data set [4] relates to differentiated C2C12 myocytes. The data set is described as follows: Glucose uptake assay. Conditions: 500 nM MLN4924 6 h, 100 nM insulin 1 hour. The class given is cell-based. The protocol: Differentiated C2C12 myocytes were treated with MLN4924 (500 nM) and then stimulated with 100 nM insulin as indicated. Glucose uptake into the cells was measured. Glucose uptake into the cells was increased in the presence of MLN4924.Results are mean+/-SD of 5 replicates. “* ”, p less than 0.05, vs Vehicle-treated control.“#”, vs. insulin treated, p less than 0.05.
C2C12 myoblast cells were cultured in DMEM medium supplemented with 10% FBS. When cells grow to 60% confluency, differentiation into myocytes was induced by culturing cells in DMEM supplemented with 2% horse serum for 4-6 days. Cells were then serum starved overnight and treated with 500 nM MLN4924 or DMSO for 6 h and then stimulated with 100 nM insulin for 1 hour as indicated. Glucose uptake was measured with a Glucose uptake Glo^tm assay kit that was purchased from Promega (Madison, WI).

The mark [5] stands for this setting: WD 16 weeks, 60 mg/kg SQ every other day for last 8 weeks.
Where [6] appears, read: WD 16 weeks, 60 mg/kg SQ twice/week.

As for `NS(=O)(=O)OC[C@@H]1C[C@@H](n2ccc3c(N[C@H]4CCc5ccccc54)ncnc32)C[C@@H]1O` [MLN4924, ((1S,2S,4R)-4-(4-((1S)-2,3-dihydro-1H-inden-1-ylamino)-7H-pyrrolo[2,3-d]pyrimidin-7-yl)-2-hydroxycyclopentyl) methyl sulfamate], in data set [1] (setting [5]), the “blood glucose (6 h fast)” value is given as “normalized blood glucose”, the “hepatic steatosis as measured by liver TGs” value was “lowered hepatic steatosis” and the “serum AST” value is listed as “decreased serum AST”. Further, in data set [1] (WD 16 weeks, 60 mg/kg SQ once every two days after 8 weeks), the “liver IRS protein abundance” value is “increases liver IRS protein abundance”. In addition, the “hepatic AKT phosphorylation” value in data set [1] (chronic WD-fed mice) is reported as “increased hepatic AKT phosphorylation”. The tolerability / hepatotoxicity result in data set [2] (16 weeks of MLN4924, 60 mg/kg SQ twice/week) is “well tolerated and did not cause hepatotoxicity”. For the same compound, the “transaminase (ALT) elevation” value in data set [2] (C-fed mice, after 16 weeks of MLN4924) is “did not cause transaminase (ALT) elevation”. Further, in data set [2] (setting [6]), the “blood glucose (6 h fast)” value was “completely normalized blood glucose”, the “reduction of hepatic cholesterol” value is on record as ~ 30% and the “reduction of hepatic triglycerides (TG)” value is ~ 40%. In data set [2] (WD-fed mice, 16 weeks of MLN4924), the “serum ALT” value was “significantly reduced”. Also, the neddylation inhibition result in data set [3] (500 nM MLN4924, 7 hrs) was “strong neddylation inhibition”. In addition, the basal insulin secretion result in data set [3] (500 nM MLN4924, 2.5 mM glucose) was “did not affect”. Moreover, in data set [3] (500 nM MLN4924, 12 mM glucose), the glucose-stimulated insulin secretion entry is recorded as “did not affect”. Moreover, the glucose uptake result in data set [4] is “increased glucose uptake”.

The values are drawn from US20230218654A1, “COMPOSITIONS AND METHODS FOR TREATING HYPERGLYCEMIA IN TYPE-2 DIABETES” (The Board of Regents of the university of Oklahoma, priority 2020, published 2023).
